Data from PubChem BioAssay AID248 (DTP/NCI, 2004).
“And” between values parts separate entries of the source, which are not always exact repeats. Equal entries are not always repeated. Inconclusive results and toxic doses are left out.

Test system: L1210 leukemia ip in BDF1 mice, survival T/C
Test: NCI In Vivo Anticancer Drug Screen. Data for tumor model L1210 Leukemia (intraperitoneal) in B6D2F1 (BDF1) mice
Conditions: endpoint: mean survival time, higher = longer survival
In short: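 Read-out is survival time, reported as the treated-group measurement over the vehicle-control measurement.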

[1] = dose: 100.0 mg/kg/injection, schedule: Q01DX001 (ip), vehicle: saline
[2] = dose: 200.0 mg/kg/injection, schedule: Q01DX001 (ip), vehicle: saline
[3] = dose: 400.0 mg/kg/injection, schedule: Q01DX001 (ip), vehicle: saline
[4] = dose: 100.0 mg/kg/injection, schedule: Q01DX009 (ip), vehicle: Klucel (hydroxypropylcellulose) (HPC)
[5] = dose: 100.0 mg/kg/injection, schedule: Q04DX003 (ip), vehicle: Klucel (hydroxypropylcellulose) (HPC)
[6] = dose: 200.0 mg/kg/injection, schedule: Q04DX003 (ip), vehicle: Klucel (hydroxypropylcellulose) (HPC)
[7] = dose: 400.0 mg/kg/injection, schedule: Q04DX003 (ip), vehicle: Klucel (hydroxypropylcellulose) (HPC)
[8] = dose: 100.0 mg/kg/injection, schedule: Q01DX001 (ip), vehicle: Klucel (hydroxypropylcellulose) (HPC)
[9] = dose: 200.0 mg/kg/injection, schedule: Q01DX001 (ip), vehicle: Klucel (hydroxypropylcellulose) (HPC)
[10] = dose: 400.0 mg/kg/injection, schedule: Q01DX001 (ip), vehicle: Klucel (hydroxypropylcellulose) (HPC)
[11] = dose: 100.0 mg/kg/injection, schedule: Q04DX003 (ip), vehicle: saline
[12] = dose: 200.0 mg/kg/injection, schedule: Q04DX003 (ip), vehicle: saline
[13] = dose: 100.0 mg/kg/injection, schedule: Q04DX002 (ip), vehicle: saline with Tween-80
[14] = dose: 200.0 mg/kg/injection, schedule: Q04DX002 (ip), vehicle: saline with Tween-80
[15] = dose: 400.0 mg/kg/injection, schedule: Q04DX002 (ip), vehicle: saline with Tween-80

## N#Cc1c(N)ncn1C1OC(CO)C(O)C1O (centres undefined)
[1]
  T/C: 96 % of control
[2]
  T/C: 104 % of control
[3]
  T/C: 109 % of control

## Clc1cc(Cl)c2c(c1)COCO2
dose: 25.0 mg/kg/injection, schedule: Q01DX009 (ip), vehicle: Klucel (hydroxypropylcellulose) (HPC)
  T/C: 109 % of control
dose: 50.0 mg/kg/injection, schedule: Q01DX009 (ip), vehicle: Klucel (hydroxypropylcellulose) (HPC)
  T/C: 104 % of control
[4]
  T/C: 106 % of control
[5]
  T/C: 97 % of control
[6]
  T/C: 102 % of control
[7]
  T/C: 111 % of control

## C=C(Br)S(=O)(=O)CC
dose: 6.25 mg/kg/injection, schedule: Q04DX002 (ip), vehicle: saline
  T/C: 101 % of control
dose: 12.5 mg/kg/injection, schedule: Q04DX002 (ip), vehicle: saline
  T/C: 90 % of control
dose: 25.0 mg/kg/injection, schedule: Q04DX002 (ip), vehicle: Klucel (hydroxypropylcellulose) (HPC)
  T/C: 101 % of control
dose: 25.0 mg/kg/injection, schedule: Q04DX002 (ip), vehicle: saline
  T/C: 111 % of control

## CC(=O)OC1CCC2(C)C(=CCC3C2CCC2(C)C(C(C)C(N)=O)CCC32)C1 (centres undefined)
[8]
  T/C: 90 % of control and 91 % of control
[9]
  T/C: 94 % of control and 91 % of control
[10]
  T/C: 87 % of control and 100 % of control

## O=C(O)C1CCSS1 (centres undefined)
dose: 50.0 mg/kg/injection, schedule: Q01DX009 (ip), vehicle: saline
  T/C: 89 % of control
dose: 100.0 mg/kg/injection, schedule: Q01DX009 (ip), vehicle: saline
  T/C: 92 % of control
[11]
  T/C: 101 % of control
[12]
  T/C: 104 % of control

## CCOC(=O)C(CCC(c1ccc(OC)cc1)c1ccc(OC)cc1)C(=O)OCC
[1]
  T/C: 98 % of control
[2]
  T/C: 93 % of control
[3]
  T/C: 94 % of control

## COc1ccc2ccc(=O)oc2c1CC=C(C)C
dose: 100.0 mg/kg/injection, schedule: Q01DX001 (ip), vehicle: other
  T/C: 98 % of control
dose: 200.0 mg/kg/injection, schedule: Q01DX001 (ip), vehicle: other
  T/C: 93 % of control
dose: 400.0 mg/kg/injection, schedule: Q01DX001 (ip), vehicle: other
  T/C: 101 % of control

## COc1cc(-c2nc(/C=C3\C(=O)C=Cc4ccccc43)c(O)o2)cc(OC)c1OC
[13]
  T/C: 93 % of control
[14]
  T/C: 86 % of control
[15]
  T/C: 93 % of control

## Cc1ccc(C(=O)/C=C/c2ccc3c(c2)OCO3)c(C)c1
dose: 100.0 mg/kg/injection, schedule: Q04DX002 (ip), vehicle: DMSO
  T/C: 103 % of control
dose: 200.0 mg/kg/injection, schedule: Q04DX002 (ip), vehicle: DMSO
  T/C: 93 % of control
dose: 400.0 mg/kg/injection, schedule: Q04DX002 (ip), vehicle: DMSO
  T/C: 103 % of control

## Cc1c(Cl)c(C)c(Cl)c(CCl)c1Cl
dose: 100.0 mg/kg/injection, schedule: Q01DX009 (ip), vehicle: saline sonified
  T/C: 100 % of control
[5]
  T/C: 97 % of control
dose: 200.0 mg/kg/injection, schedule: Q01DX009 (ip), vehicle: saline sonified
  T/C: 95 % of control
[6]
  T/C: 89 % of control
dose: 400.0 mg/kg/injection, schedule: Q01DX009 (ip), vehicle: saline sonified
  T/C: 91 % of control
[7]
  T/C: 92 % of control

## CC(C)CC(=O)CC(Cl)(C(F)(F)F)C(F)(F)F
dose: 100.0 mg/kg/injection, schedule: Q04DX003 (ip), vehicle: gum acacia
  T/C: 100 % of control
dose: 200.0 mg/kg/injection, schedule: Q04DX003 (ip), vehicle: gum acacia
  T/C: 100 % of control
dose: 400.0 mg/kg/injection, schedule: Q04DX003 (ip), vehicle: gum acacia
  T/C: 90 % of control

## N#CC1C=Cc2ccccc2N1C(=O)Oc1ccccc1 (centres undefined)
[11]
  T/C: 104 % of control
[12]
  T/C: 93 % of control
dose: 400.0 mg/kg/injection, schedule: Q04DX003 (ip), vehicle: saline
  T/C: 94 % of control

## O=Cc1cc(=O)[nH]c(S)[n+]1-c1ccccc1
dose: 50.0 mg/kg/injection, schedule: Q04DX002 (ip), vehicle: Klucel (hydroxypropylcellulose) (HPC)
  T/C: 96 % of control
dose: 100.0 mg/kg/injection, schedule: Q04DX002 (ip), vehicle: Klucel (hydroxypropylcellulose) (HPC)
  T/C: 96 % of control
dose: 200.0 mg/kg/injection, schedule: Q04DX002 (ip), vehicle: Klucel (hydroxypropylcellulose) (HPC)
  T/C: 101 % of control

## O=COC(CCCc1ccccc1)c1ccc2c(c1)OCO2 (centres undefined)
dose: 100.0 mg/kg/injection, schedule: Q04DX003 (ip), vehicle: other
  T/C: 93 % of control
dose: 200.0 mg/kg/injection, schedule: Q04DX003 (ip), vehicle: other
  T/C: 93 % of control
dose: 400.0 mg/kg/injection, schedule: Q04DX003 (ip), vehicle: other
  T/C: 98 % of control

## Cn1cnc([N+](=O)[O-])c1Sc1nc(N)nc2c1ncn2C1CC(O)C(CO)O1 (centres undefined)
dose: 6.25 mg/kg/injection, schedule: Q01DX005 (ip), vehicle: saline
  T/C: 155 % of control
dose: 12.5 mg/kg/injection, schedule: Q01DX005 (ip), vehicle: saline
  T/C: 173 % of control
dose: 25.0 mg/kg/injection, schedule: Q01DX005 (ip), vehicle: saline
  T/C: 150 % of control
dose: 100.0 mg/kg/injection, schedule: Q01DX005 (ip), vehicle: saline
  T/C: 94 % of control
dose: 200.0 mg/kg/injection, schedule: Q01DX005 (ip), vehicle: saline
  T/C: 107 % of control
dose: 240.0 mg/kg/injection, schedule: Q01DX005 (ip), vehicle: saline
  T/C: 122 % of control
dose: 600.0 mg/kg/injection, schedule: Q01DX005 (ip), vehicle: saline
  T/C: 115 % of control

## OC(CCCNc1ccccc1)CCCNc1ccccc1
dose: 75.0 mg/kg/injection, schedule: Q01DX001 (ip), vehicle: saline
  T/C: 96 % of control
dose: 150.0 mg/kg/injection, schedule: Q01DX001 (ip), vehicle: saline
  T/C: 91 % of control

## CC(=O)c1ccccc1C(=O)O
dose: 50.0 mg/kg/injection, schedule: Q04DX003 (ip), vehicle: Klucel (hydroxypropylcellulose) (HPC)
  T/C: 98 % of control
[5]
  T/C: 94 % of control
[6]
  T/C: 96 % of control

## CCOC(=O)C1C(=O)CC(=O)C(C(=O)OCC)C1C1CC=CCC1 (centres undefined)
[13]
  T/C: 91 % of control
[14]
  T/C: 94 % of control
[15]
  T/C: 94 % of control

## CCC1CCCCN1 (centres undefined)
dose: 10.0 mg/kg/injection, schedule: Q01DX001 (ip), vehicle: saline
  T/C: 105 % of control
dose: 10.0 mg/kg/injection, schedule: Q01DX009 (ip), vehicle: saline
  T/C: 108 % of control and 111 % of control
dose: 10.0 mg/kg/injection, schedule: Q04DX002 (ip), vehicle: saline
  T/C: 95 % of control and 106 % of control
dose: 10.0 mg/kg/injection, schedule: Q04DX003 (ip), vehicle: saline
  T/C: 103 % of control
dose: 20.0 mg/kg/injection, schedule: Q01DX001 (ip), vehicle: saline
  T/C: 120 % of control
dose: 20.0 mg/kg/injection, schedule: Q01DX009 (ip), vehicle: saline
  T/C: 104 % of control
dose: 20.0 mg/kg/injection, schedule: Q04DX002 (ip), vehicle: saline
  T/C: 103 % of control
dose: 20.0 mg/kg/injection, schedule: Q04DX003 (ip), vehicle: saline
  T/C: 101 % of control
dose: 40.0 mg/kg/injection, schedule: Q01DX001 (ip), vehicle: saline
  T/C: 103 % of control
dose: 40.0 mg/kg/injection, schedule: Q01DX009 (ip), vehicle: saline
  T/C: 104 % of control
dose: 40.0 mg/kg/injection, schedule: Q04DX002 (ip), vehicle: saline
  T/C: 94 % of control and 98 % of control
dose: 40.0 mg/kg/injection, schedule: Q04DX003 (ip), vehicle: saline
  T/C: 97 % of control

## CC(C)=C1C2C=CC1C(CO)C2CO (centres undefined)
[4]
  T/C: 106 % of control
[5]
  T/C: 105 % of control
dose: 200.0 mg/kg/injection, schedule: Q01DX009 (ip), vehicle: Klucel (hydroxypropylcellulose) (HPC)
  T/C: 91 % of control
[6]
  T/C: 114 % of control
dose: 400.0 mg/kg/injection, schedule: Q01DX009 (ip), vehicle: Klucel (hydroxypropylcellulose) (HPC)
  T/C: 102 % of control
[7]
  T/C: 102 % of control

## O=c1c2[nH]c3cccc(Cl)c3c2cnn1-c1ccc(F)cc1
[8]
  T/C: 96 % of control
[9]
  T/C: 104 % of control
[10]
  T/C: 104 % of control

## C=CC1C[N+]2(SS(=O)(=O)O)CCC1CC2C(O)c1ccnc2ccc(OC)cc12 (centres undefined)
dose: 18.8 mg/kg/injection, schedule: Q01DX009 (ip), vehicle: saline
  T/C: 91 % of control
dose: 37.5 mg/kg/injection, schedule: Q01DX009 (ip), vehicle: saline
  T/C: 94 % of control
dose: 75.0 mg/kg/injection, schedule: Q01DX009 (ip), vehicle: saline
  T/C: 88 % of control
